Results as given in ChEMBL document CHEMBL1201862, “PubChem BioAssay data set” (2004).
Calls of active or inactive are those of the source.

What was measured:
[1] = tested on: Streptococcus sp. 'group A'; test: Streptococcus pyogenes SK(-)GAS viability under kanamycin – luminescence, BacTiterGlo, confirmation, counter-screen for streptokinase expression inhibitor project, dose response (AID 1900); format: functional, organism-based
[2] = molecular target: T1, Streptokinase A (Streptococcus pyogenes serotype M1, UniProt P10520); test: viability-normalized secreted streptokinase activity reduction – plasminogen activation absorbance, OD405, dose response (AID 1914); format: functional, Streptococcus pyogenes M1 GAS;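 also: secreted streptokinase activity via plasminogen activation per viability signal from cell pellet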
T1 sequence (P10520 whole entry): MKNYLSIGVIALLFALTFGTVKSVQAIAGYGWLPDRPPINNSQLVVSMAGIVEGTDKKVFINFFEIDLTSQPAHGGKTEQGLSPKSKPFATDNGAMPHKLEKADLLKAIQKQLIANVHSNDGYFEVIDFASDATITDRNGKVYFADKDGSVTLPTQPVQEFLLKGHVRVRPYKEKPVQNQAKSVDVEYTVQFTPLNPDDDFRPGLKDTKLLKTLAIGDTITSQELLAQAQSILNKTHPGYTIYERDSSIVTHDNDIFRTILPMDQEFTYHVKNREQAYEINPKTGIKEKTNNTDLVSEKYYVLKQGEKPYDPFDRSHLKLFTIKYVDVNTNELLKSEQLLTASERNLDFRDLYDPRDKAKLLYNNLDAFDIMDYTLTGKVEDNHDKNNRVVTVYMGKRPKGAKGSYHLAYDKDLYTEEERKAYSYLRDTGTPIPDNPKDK

[3] = tested on: Streptococcus; test: GAS UMAA2166 growth inhibition – luminescence, BacTiterGlo, counter-screen for streptokinase expression inhibitor project, dose response (AID 1915); format: functional, organism-based;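 also: potency for reduction of bacterial viability or growth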
[4] = molecular target: Heat shock protein HSP 90-alpha (Homo sapiens, UniProt P07900); format: functional, organism-based
[5] = molecular target: T2, Insulin-degrading enzyme (Homo sapiens, UniProt P14735); test: recombinant IDE activation, cell-free – biochemical, fluorescence polarization, counter-screen for IDE activator project, dose response (AID 588681)
T2 sequence (P14735 whole entry): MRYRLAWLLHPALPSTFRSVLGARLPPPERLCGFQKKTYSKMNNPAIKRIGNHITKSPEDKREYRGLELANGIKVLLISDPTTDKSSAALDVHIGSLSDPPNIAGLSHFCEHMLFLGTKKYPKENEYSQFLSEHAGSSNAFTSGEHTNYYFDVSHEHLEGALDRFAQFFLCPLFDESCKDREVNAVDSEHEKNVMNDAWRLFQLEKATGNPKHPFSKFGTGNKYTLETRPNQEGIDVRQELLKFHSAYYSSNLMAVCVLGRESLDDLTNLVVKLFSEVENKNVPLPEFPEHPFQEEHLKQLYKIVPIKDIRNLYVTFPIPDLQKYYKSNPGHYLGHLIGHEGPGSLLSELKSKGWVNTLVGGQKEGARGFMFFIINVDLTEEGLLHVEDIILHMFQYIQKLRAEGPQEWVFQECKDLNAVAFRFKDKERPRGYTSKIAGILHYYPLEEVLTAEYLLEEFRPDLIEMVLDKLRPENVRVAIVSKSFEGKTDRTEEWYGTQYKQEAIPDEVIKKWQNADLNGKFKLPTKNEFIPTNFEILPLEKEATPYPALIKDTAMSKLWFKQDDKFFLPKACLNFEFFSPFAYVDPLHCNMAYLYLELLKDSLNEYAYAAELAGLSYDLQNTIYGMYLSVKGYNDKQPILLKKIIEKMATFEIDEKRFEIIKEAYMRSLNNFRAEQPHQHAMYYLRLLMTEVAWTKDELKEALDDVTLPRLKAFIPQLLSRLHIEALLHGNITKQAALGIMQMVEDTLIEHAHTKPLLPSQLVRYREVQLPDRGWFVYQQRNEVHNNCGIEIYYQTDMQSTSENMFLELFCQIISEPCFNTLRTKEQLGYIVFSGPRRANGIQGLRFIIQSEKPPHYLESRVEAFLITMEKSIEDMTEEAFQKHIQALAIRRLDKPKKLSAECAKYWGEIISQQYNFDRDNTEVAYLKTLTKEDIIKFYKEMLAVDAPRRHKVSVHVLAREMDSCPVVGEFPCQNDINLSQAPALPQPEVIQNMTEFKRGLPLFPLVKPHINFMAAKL

[6] = molecular target: T2, Insulin-degrading enzyme; test: cellular IDE activation of Abeta substrate cleavage – fluorescence polarization, HEK cells, dose response (AID 588439); format: functional, cell-based
[7] = tested on: HEK293; test: membrane integrity loss in HEK cells – cell-based, fluorescence, cytotoxicity control for IDE activator project, dose response (AID 588440); format: functional; conditions: Homo sapiens;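 also: cytotoxicity by LDH release measuring loss of membrane integrity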
[8] = tested on: HEK293; test: optical interference in Abeta FP readout, dose response, artefact control for IDE activator project, biochemical, fluorescence polarization (AID 588442); format: functional, cell-based; conditions: Homo sapiens
[9] = microbe, parasite or virus in culture; format: functional; conditions: Mycobacterium tuberculosis
[10] = viability of PTEN-deleted HCT116 cells – cell-based, HCT116 PTEN knockout, dose response (AID 1047); format: functional;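 also: HCT116 colon tumor cells with PTEN knocked out; cells exposed to compound for 60 hours before readout; potency for loss of cell viability measured by luminescence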
[11] = viability of HCT116 lacking mutant beta-catenin – cell-based, human colon tumor, dose response (AID 1045); format: functional;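 also: HCT116 colon tumor cells with beta catenin knocked out; cells exposed to compound for 60 hours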
[12] = Luminescence Cell-Based Dose Retest to Confirm Inhibitors of Cancer Stem Cells. [Related pubchem assays (depositor defined):AID2717, AID2721]; format: functional; conditions: Homo sapiens
[13] = molecular target: Trypsin (Sus scrofa, UniProt P00761); test: trypsin protease activity blockade – biochemical, quenched peptide fluorescence, cherry-pick, selectivity assay for Rce1 protease inhibitor project, dose response (AID 488789)
[14] = molecular target: CAAX prenyl protease 2 (Saccharomyces cerevisiae S288c, UniProt Q03530); format: biochemical
[15] = molecular target: CAAX prenyl protease 2 (Homo sapiens, UniProt Q9Y256); test: inhibition of Ras-converting CAAX protease Rce1 – biochemical, yeast membranes, quenched-peptide fluorescence, cherry-pick, dose response (AID 588849)
[16] = molecular target: T3, Protein skinhead-1 (Caenorhabditis elegans, UniProt P34707); format: functional
T3 sequence (P34707 whole entry): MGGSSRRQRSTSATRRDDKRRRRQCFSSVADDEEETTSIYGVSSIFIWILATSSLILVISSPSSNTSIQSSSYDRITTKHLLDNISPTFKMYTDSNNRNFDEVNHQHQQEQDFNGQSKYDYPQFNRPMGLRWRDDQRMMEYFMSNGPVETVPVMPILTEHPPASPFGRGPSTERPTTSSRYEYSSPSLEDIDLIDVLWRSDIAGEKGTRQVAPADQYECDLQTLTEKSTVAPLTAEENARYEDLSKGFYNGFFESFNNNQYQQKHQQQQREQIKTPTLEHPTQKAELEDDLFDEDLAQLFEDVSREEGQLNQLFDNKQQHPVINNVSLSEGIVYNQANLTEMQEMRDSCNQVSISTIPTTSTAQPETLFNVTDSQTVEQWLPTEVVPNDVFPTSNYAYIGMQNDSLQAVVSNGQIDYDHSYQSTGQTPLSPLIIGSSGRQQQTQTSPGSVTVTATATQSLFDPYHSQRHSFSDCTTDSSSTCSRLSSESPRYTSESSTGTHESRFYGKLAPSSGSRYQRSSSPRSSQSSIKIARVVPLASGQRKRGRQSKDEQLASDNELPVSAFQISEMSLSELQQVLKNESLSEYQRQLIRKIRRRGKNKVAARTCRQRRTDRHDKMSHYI

[17] = tested on: HEK293; test: EBV LMP1 TES2 canonical NF-kB signalling blockers – cell-based, HEK293, luciferase, cherry-pick, dose response (AID 588343); format: functional; conditions: Homo sapiens
[18] = molecular target: Latent membrane protein 1 (Human herpesvirus 4 (strain B95-8), UniProt P03230); test: LMP1 TES1 pathway selectivity over dsRED control – imaging, HEK293T, dual-color eGFP/dsRED, cherry-picks, selectivity assay for LMP1 NF-kB inhibitor project, dose response (AID 588398); format: functional, cell-based
[19] = reduction of Shn3 3'UTR-driven luciferase in osteoblasts – cell-based, Clone20 osteoblasts, firefly luciferase, cherry-picked, dose response (AID 624132); format: functional;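 also: firefly luciferase luminescence from reporter carrying the Shn3 3'UTR in osteoblasts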
[20] = loss of viability in HepG2 cells – cell-based, CellTiter-Glo, cherry-picked, cytotoxicity control for Shn3 inhibitor project, dose response (AID 624134); format: functional
[21] = molecular target: Beta-2 adrenergic receptor (Homo sapiens, UniProt P07550); test: ADRB2 activation measured by internalization – cell-based, FAP fluorogen, flow cytometry, cherry pick 1, dose response (AID 588763); format: functional
Chain of Beta-2 adrenergic receptor (P07550 whole entry): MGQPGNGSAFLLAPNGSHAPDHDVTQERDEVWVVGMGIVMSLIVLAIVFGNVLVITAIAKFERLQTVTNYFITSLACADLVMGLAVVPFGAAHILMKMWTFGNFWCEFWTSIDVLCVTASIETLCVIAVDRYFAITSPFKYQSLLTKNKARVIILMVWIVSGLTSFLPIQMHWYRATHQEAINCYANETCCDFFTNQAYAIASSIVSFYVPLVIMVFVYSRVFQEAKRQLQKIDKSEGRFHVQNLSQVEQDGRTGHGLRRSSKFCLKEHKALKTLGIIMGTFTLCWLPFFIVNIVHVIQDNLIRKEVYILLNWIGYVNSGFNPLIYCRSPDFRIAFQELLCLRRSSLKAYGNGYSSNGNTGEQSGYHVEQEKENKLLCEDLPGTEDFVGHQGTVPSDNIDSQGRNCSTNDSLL

Chain of CAAX prenyl protease 2 (Homo sapiens, UniProt Q9Y256) (Q9Y256 whole entry): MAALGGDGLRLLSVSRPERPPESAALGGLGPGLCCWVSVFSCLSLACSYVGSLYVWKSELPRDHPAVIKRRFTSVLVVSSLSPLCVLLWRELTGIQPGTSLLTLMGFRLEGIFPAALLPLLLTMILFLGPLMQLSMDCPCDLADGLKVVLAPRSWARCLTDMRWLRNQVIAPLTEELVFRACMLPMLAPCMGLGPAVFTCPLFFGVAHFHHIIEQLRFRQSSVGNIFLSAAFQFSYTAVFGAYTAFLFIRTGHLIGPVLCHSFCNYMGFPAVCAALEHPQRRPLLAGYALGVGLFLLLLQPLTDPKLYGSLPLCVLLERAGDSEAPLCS
Chain of CAAX prenyl protease 2 (Saccharomyces cerevisiae S288c, UniProt Q03530) (Q03530 whole entry): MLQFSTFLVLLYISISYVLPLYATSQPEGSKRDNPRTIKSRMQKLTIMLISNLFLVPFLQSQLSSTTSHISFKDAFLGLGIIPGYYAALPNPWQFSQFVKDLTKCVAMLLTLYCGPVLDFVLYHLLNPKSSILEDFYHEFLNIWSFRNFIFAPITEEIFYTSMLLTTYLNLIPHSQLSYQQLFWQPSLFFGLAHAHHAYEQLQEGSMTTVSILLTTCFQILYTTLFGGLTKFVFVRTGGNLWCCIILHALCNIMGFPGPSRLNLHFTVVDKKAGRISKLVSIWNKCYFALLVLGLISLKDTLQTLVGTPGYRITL
Chain of Latent membrane protein 1 (P03230 whole entry): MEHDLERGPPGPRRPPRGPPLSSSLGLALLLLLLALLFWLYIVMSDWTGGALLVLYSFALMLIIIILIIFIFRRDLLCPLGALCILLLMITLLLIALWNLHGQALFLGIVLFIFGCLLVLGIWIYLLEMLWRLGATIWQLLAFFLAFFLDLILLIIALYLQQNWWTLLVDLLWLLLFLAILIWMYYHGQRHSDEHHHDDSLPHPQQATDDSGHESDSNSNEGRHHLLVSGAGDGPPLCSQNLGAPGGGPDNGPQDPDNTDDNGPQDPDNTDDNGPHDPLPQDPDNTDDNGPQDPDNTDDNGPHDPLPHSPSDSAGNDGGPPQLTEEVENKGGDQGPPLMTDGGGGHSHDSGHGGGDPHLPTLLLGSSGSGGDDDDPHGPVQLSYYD
Chain of Trypsin (P00761 whole entry): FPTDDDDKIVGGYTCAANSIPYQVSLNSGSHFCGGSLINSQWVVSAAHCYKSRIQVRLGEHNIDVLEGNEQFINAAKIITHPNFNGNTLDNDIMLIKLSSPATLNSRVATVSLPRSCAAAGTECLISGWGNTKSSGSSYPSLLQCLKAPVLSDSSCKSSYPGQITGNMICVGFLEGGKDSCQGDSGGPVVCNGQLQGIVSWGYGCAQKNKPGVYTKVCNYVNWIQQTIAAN

## Oc1cc(OCc2ccccc2)ccc1-c1[nH]ncc1-c1ccccc1
[1]
  EC50: 2.88 µM (active)
[2]
  EC50: > 150 µM (not active)
[3]
  EC50: 10.5 µM (active)
[4]
  AC50: 9.12 µM (active)
[5]
  EC50: > 54.7 µM (inactive)
[6]
  EC50: > 54.7 µM (inactive)
[7]
  IC50: 16.9 µM (inactive)
[8]
  EC50: > 55.9 µM (inactive)

## COc1ccc(CNC(=O)c2c(N)n(CCCN3CCOCC3)c3nc4ccccc4nc23)cc1
[9]
  CC50: 24.5 µM (active)
[10]
  EC50: 17.4 µM (active)
[11]
  EC50: 15.3 µM (active)
[12]
  AC50: 6.56 µM (active)
[13]
  AC50: 10.5 µM (active)
[14]
  AC50: 22.9 µM (active)
[15]
  AC50: 23.9 µM (active)
[16]
  IC50: > 100 µM (inactive)

## CN1OC[C@@H]2CN[C@H](c3ccc(-c4cc5ccccc5o4)cc3)C[C@@H]21
[17]
  AC50: 0.0503 µM (active)
[18]
  AC50: 51.1 µM (active)
[19]
  AC50: < 0.26 µM (active)
[20]
  AC50: > 70 µM (inactive)

## Cc1ccc(C(=O)OCC(=O)Nc2nc(-c3ccccc3)cs2)cc1NC(=O)c1ccco1
[21]
  EC50: 1.41 µM (active)
